Results on 16 molecules are retold here after ChEMBL document CHEMBL3297711, “Application of encoded library technology (ELT) to a protein-protein interaction target: discovery of a potent class of integrin lymphocyte function-associated antigen 1 (LFA-1) antagonists” (Bioorg Med Chem, 2014).

The source made the active and inactive calls. The calls are words filed in the database; no cut-off is given here.

In one test the target is T1, Integrin alpha-L (Homo sapiens, UniProt P20701).
T1 sequence (P20701 whole entry): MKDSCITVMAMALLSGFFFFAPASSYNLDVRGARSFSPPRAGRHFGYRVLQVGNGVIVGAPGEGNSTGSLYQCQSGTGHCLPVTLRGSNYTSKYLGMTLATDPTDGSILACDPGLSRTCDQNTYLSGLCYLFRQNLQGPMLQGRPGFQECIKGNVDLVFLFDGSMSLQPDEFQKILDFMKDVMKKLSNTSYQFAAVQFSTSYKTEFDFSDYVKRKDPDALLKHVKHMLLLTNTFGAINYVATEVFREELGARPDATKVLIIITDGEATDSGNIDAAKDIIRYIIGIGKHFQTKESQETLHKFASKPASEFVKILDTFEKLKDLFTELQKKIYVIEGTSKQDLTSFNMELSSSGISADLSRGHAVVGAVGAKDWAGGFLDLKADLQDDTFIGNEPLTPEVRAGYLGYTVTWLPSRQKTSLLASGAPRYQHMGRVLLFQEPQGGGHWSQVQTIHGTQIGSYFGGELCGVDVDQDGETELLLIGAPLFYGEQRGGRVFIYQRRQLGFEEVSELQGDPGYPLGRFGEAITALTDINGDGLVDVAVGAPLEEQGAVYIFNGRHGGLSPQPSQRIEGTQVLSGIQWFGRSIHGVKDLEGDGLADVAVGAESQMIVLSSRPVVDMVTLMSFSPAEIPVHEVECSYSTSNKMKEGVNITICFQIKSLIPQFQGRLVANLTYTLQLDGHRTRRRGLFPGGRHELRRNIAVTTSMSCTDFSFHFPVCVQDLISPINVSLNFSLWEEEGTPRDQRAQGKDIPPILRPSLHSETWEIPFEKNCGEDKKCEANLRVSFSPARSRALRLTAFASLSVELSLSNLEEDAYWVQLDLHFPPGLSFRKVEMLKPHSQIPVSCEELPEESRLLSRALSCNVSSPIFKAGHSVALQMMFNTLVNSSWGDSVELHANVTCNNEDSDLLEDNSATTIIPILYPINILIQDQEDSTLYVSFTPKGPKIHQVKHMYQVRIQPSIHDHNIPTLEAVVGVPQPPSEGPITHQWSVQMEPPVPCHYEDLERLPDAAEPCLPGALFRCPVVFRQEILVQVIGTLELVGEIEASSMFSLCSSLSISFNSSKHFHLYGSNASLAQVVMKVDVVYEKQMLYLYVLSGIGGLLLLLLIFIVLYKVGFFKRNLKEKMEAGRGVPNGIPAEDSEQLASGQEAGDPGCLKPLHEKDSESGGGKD
The experiment in a line: (§1) Antagonist activity at C-terminal 6xHis-tagged LFA-1 LBD (unknown origin) expressed in Escherichia coli assessed as inhibition of interaction with ICAM-1 preincubated for 30 mins followed by ICAM-1 addition measured after 60 mins by ELISA.

The target in test [1] is T2, Integrin alpha-L (Homo sapiens) (UniProt P20701).
T2 sequence (whole entry): T1 sequence (P20701 whole entry)
The experiment in a line: Binding affinity to LFA-1 (unknown origin) transfected in human K562 cells by FACS analysis relative to control. It counts as cell-based. On the technique in general: A flow cytometer gives signals particle by particle.

The subject of test [2] is K562. The experiment in a line: Allosteric antagonist activity at LFA-1 K287C/K294C double mutant (unknown origin) transfected in human K562 cells assessed as inhibition of cell adhesion to ICAM-1 at 50 uM incubated for 30 mins under dark condition by microplate fluorimetric analysis in presence of DTT. It is filed as cell-based.
The target of test [3] is T2, Integrin alpha-L (Homo sapiens). The experiment in a line: Antagonist activity at wild type LFA-1 in human Jurkat cells assessed as inhibition of PMA-stimulated cell adhesion to ICAM-1 at 50 uM incubated for 45 mins under dark condition by microplate fluorimetric analysis. It counts as cell-based.
For test [4] the target is unchanged. The test is described as §1.
Test [5] has the same target. The experiment in a line: Allosteric antagonist activity at wild type LFA-1 (unknown origin) transfected in human K562 cells assessed as inhibition of cell adhesion to ICAM-1 at 50 uM incubated for 30 mins under dark condition by microplate fluorimetric analysis. It is filed as cell-based.
The test system of test [6] is K562. The experiment in a line: Allosteric antagonist activity at LFA-1 K287C/K294C double mutant (unknown origin) transfected in human K562 cells assessed as inhibition of cell adhesion to ICAM-1 at 50 uM incubated for 30 mins under dark condition by microplate fluorimetric analysis in absence of DTT. It counts as cell-based.

The IC50 is the concentration that inhibits the measured activity by half. As for `CCNC(=O)C1(Nc2nc(NCCc3ccccc3)nc(N3CC4CC3CN4C(=O)c3cccc(C(F)(F)F)c3)n2)Cc2ccccc2C1` (stereo not drawn), the IC50 on Integrin alpha-L worked out at 488 nM.

With `CCN1/C(=C/C=C/C2=[N+](CCCCCC(=O)NCCCCNC(=O)C3(Nc4nc(NCCc5ccc(Cl)c(Cl)c5)nc(N5CC6CC5CN6S(=O)(=O)c5cccc(C(F)(F)F)c5)n4)Cc4ccccc4C3)c3ccc(S(=O)(=O)O)cc3C2(C)C)C(C)(C)c2cc(S(=O)(=O)O)ccc21` (stereo not drawn), in test [1], the fold change (FC) was determined as 2. The IC50 on Integrin alpha-L was found to be 28 nM.

As for `CCNC(=O)C1(Nc2nc(N[C@@H](C)c3ccccc3)nc(N3CC4CC3CN4C(=O)c3cccc(C(F)(F)F)c3)n2)Cc2ccccc2C1` (stereo partly drawn), the IC50 at Integrin alpha-L was 180 nM.

For the molecule `CCN1/C(=C/C=C/C2=[N+](CCCCCC(=O)NCCCCNC(=O)C3(Nc4nc(NCCc5ccc(Cl)c(Cl)c5)nc(N5CC6CC5CN6C(=O)c5cccc(C(F)(F)F)c5)n4)Cc4ccccc4C3)c3ccc(S(=O)(=O)O)cc3C2(C)C)C(C)(C)c2cc(S(=O)(=O)O)ccc21` (stereo not drawn), in test [1], the fold change (FC) is 3. At Integrin alpha-L, the IC50 was 100 nM.

Consider `CCNC(=O)C1(Nc2nc(NCCc3ccc(Cl)c(Cl)c3)nc(N3CC4CC3CN4S(=O)(=O)c3ccccc3OC(F)(F)F)n2)Cc2ccccc2C1` (stereo not drawn), for which the inhibition entry (in the test with K562 [2]; in test [3]; in test [5]) was “Active” throughout. In addition, the IC50 on Integrin alpha-L came to 22 nM. In test [4], the inhibition entry is “Dose-dependent effect”. Besides, the inhibition entry in the test with K562 [6] was “inactive”.

Turning to `CCNC(=O)C1(Nc2nc(NCC)nc(N3CC4CC3CN4C(=O)c3cccc(C(F)(F)F)c3)n2)Cc2ccccc2C1` (stereo not drawn), the IC50 at Integrin alpha-L was above 10000 nM.

Consider `CCNC(=O)C1(Nc2nc(N[C@H](C)c3ccccc3)nc(N3CC4CC3CN4C(=O)c3cccc(C(F)(F)F)c3)n2)Cc2ccccc2C1` (stereo partly drawn), for which the IC50 at Integrin alpha-L is above 10000 nM.

Regarding `CCNC(=O)C1(Nc2nc(N[C@@H](C)c3ccc(Br)cc3)nc(N3CC4CC3CN4C(=O)c3cccc(C(F)(F)F)c3)n2)Cc2ccccc2C1` (stereo partly drawn), the inhibition entry (in the test on K562 [2]; in test [3]; in test [5]) was “Active” throughout. At Integrin alpha-L, the IC50 was 16 nM. Moreover, the inhibition entry in test [4] was “Dose-dependent effect”. For the same molecule, the inhibition entry with K562 [6] is “inactive”.

Consider `O=C(c1cccc(C(F)(F)F)c1)N1CC2CC1CN2c1nc(NCCc2ccc(Cl)c(Cl)c2)nc(NC2CCCC2)n1` (stereo not drawn), for which, at Integrin alpha-L, the IC50 was above 10000 nM.

For `O=C(c1cccc(C(F)(F)F)c1)N1CC2CC1CN2c1nc(NCCc2ccc(Cl)c(Cl)c2)nc(NC2Cc3ccccc3C2)n1` (stereo not drawn), the IC50 on Integrin alpha-L came out at 358 nM.

Take `O=C(c1cccc(C(F)(F)F)c1)N1CC2CC1CN2c1nc(NCCc2ccc(Cl)c(Cl)c2)nc(NC2(C(=O)O)Cc3ccccc3C2)n1` (stereo not drawn): on Integrin alpha-L, the IC50 was determined as 37 nM.

`CCNC(=O)C1(Nc2nc(N[C@@H](C)c3ccc(Br)cc3)nc(N3CC4CC3CN4S(=O)(=O)c3ccccc3OC(F)(F)F)n2)Cc2ccccc2C1` (stereo partly drawn): the inhibition entry (in the test with K562 [2]; in test [3]; in test [5]) was “Active” in each case. For the same molecule, on Integrin alpha-L, the IC50 turned out to be 117 nM. Further, in test [4], the inhibition entry is “Dose-dependent effect”. Further, the inhibition result with K562 [6] is “inactive”.

Take `CCNC(=O)C1(Nc2nc(NCc3ccccc3)nc(N3CC4CC3CN4C(=O)c3cccc(C(F)(F)F)c3)n2)Cc2ccccc2C1` (stereo not drawn): on Integrin alpha-L, the IC50 came out at 7900 nM.

As to `CCNC(=O)C1(Nc2nc(NCCc3ccc(Cl)c(Cl)c3)nc(N3CC4CC3CN4C(=O)c3cccc(C(F)(F)F)c3)n2)Cc2ccccc2C1` (stereo not drawn), the inhibition result (in the test with K562 [2]; in test [3]; in test [5]) was “Active” each time. Further, the IC50 at Integrin alpha-L was 23 nM. Moreover, the inhibition entry in test [4] was “Dose-dependent effect”. Further, the inhibition entry with K562 [6] was “inactive”.

Turning to `CCNC(=O)C1(Nc2nc(NCCc3ccc(Cl)c(Cl)c3)nc(N3CCCC3)n2)Cc2ccccc2C1`, at Integrin alpha-L, the IC50 came to 12900 nM.

`O=C(O)C1(Nc2nc(NCCc3ccc(Cl)c(Cl)c3)nc(N3CC4CC3CN4S(=O)(=O)c3cccc(C(F)(F)F)c3)n2)Cc2ccccc2C1` (stereo not drawn): the IC50 at Integrin alpha-L amounted to 65 nM.
